Results on 24 compounds are retold here after patent publication US9447148B2, “Melanocortin-1 receptor-specific cyclic peptides” (Palatin Technologies, Inc., priority 2009, dated 2016).

Each structure is given as a SMILES string. Numbered stars: 1 amine (or outer) side, 2 acyl side, 3 side chain; on linkers, the order of the positions; unused ones are H or OH. Bridge positions count the residues as written; N and C are the ends. Square brackets hold non-standard residues; d marks the D form. Peptide text beside a SMILES is read from it. Suc = O=C(CCC(=O)[*:2])[*:1]; Nle = CCCC[C@H](N)C(=O)O; Dab = NCC[C@H](N)C(=O)O

The target of the first assay is hMCR-4 (Homo sapiens (Human), UniProt P32245). The experiment in a line: Competitive inhibition binding assay using [I125]-NDP-α-MSH, hMCR-4. The note with it: membrane homogenates of HEK-293 cells, human recombinant receptor, averaged, read-out: MC-4 Ki (average). As for the experimental part: A competitive inhibition binding assay was performed using membrane homogenates prepared from HEK-293 cells that express recombinant hMCR-1a or hMCR-4 (in each instance where the h prefix refers to human), or alternatively membrane homogenates from B16-F10 mouse melanoma cells containing endogenous murine MCR-1. In the examples that follow, all MCR-1 and MCR-4 values are for human recombinant receptors, unless otherwise noted. Assays were performed in 96 well polypropylene round-bottom plates (VWR catalog number 12777-030). […] After incubation for 90 minutes at 37° C., the assay mixture was filtered onto GF/B Unifilter plates (Perkin-Elmer catalog number 6005177) and washed with 3 mL of ice-cold buffer per well. Filters were air dried and 35 μL of scintillation cocktail added to each well. Plates were counted in a Microbeta counter for bound radioactivity. […] Each assay was conducted in duplicate and the actual mean values are described, with results less than 0% reported as 0%. Ki values for peptides of the present invention were determined using Graph-Pad Prism® curve-fitting software.
Sequence of hMCR-4 (P32245 whole entry): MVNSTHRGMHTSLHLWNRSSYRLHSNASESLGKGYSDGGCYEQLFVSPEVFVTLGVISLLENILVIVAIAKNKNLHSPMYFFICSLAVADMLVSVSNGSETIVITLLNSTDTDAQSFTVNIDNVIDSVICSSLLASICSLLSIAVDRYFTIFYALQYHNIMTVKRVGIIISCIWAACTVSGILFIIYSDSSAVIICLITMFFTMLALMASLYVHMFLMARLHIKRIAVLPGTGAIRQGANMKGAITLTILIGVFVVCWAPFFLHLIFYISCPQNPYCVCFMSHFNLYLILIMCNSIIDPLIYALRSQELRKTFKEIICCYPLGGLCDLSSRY
(§1) Peptides of the following structures were synthesized and averaged MCR-1 and MCR-4 Ki values were determined as indicated. […] All results are expressed in nM except for Emax values, which are percentage values. Peptides with the captioned primary sequence were synthesized and purified as described in Section 5 above, with the resulting peptide having the structure depicted.
Consider `CCCC[C@H](NC(C)=O)C(=O)N[C@H]1CCC(=O)NCCCC[C@@H](C(=O)N[C@@H](Cc2c[nH]c3ccccc23)C(N)=O)NC(=O)[C@H](CCCNC(=N)N)NC(=O)[C@@H](Cc2ccccc2)NC(=O)[C@H](Cc2c[nH]cn2)NC1=O` [Example 9.1, Ac-Nle-cyclo(Glu-His-D-Phe-Arg-Lys)-Trp-NH2], for which the Ki amounted to 45 nM.

With `CCCC[C@H](NC(C)=O)C(=O)N[C@H]1CCC(=O)NCC[C@@H](C(=O)N[C@@H](Cc2c[nH]c3ccccc23)C(N)=O)NC(=O)[C@H](CCCNC(=N)N)NC(=O)[C@@H](Cc2ccccc2)NC(=O)[C@H](Cc2c[nH]cn2)NC1=O` [Example 9.2, Ac-Nle-cyclo(Glu-His-D-Phe-Arg-Dab)-Trp-NH2], the inhibition constant (Ki) is 110 nM.

For the compound `CCCC[C@H](NC(C)=O)C(=O)N[C@H]1CCC(=O)NC[C@@H](C(=O)N[C@@H](Cc2c[nH]c3ccccc23)C(N)=O)NC(=O)[C@H](CCCNC(=N)N)NC(=O)[C@@H](Cc2ccccc2)NC(=O)[C@H](Cc2c[nH]cn2)NC1=O` [Example 9.3, Ac-Nle-cyclo(Glu-His-D-Phe-Arg-Dap)-Trp-NH2], the Ki came out at 358 nM.

For `CCCC[C@H](NC(C)=O)C(=O)N[C@H]1CCC(=O)NCCC[C@@H](C(=O)N[C@@H](Cc2c[nH]c3ccccc23)C(N)=O)NC(=O)[C@H](CCCNC(=N)N)NC(=O)[C@@H](Cc2ccccc2)NC(=O)[C@H](Cc2c[nH]cn2)NC1=O` [Example 9.6, Ac-Nle-cyclo(Glu-His-D-Phe-Arg-Orn)-Trp-NH2], the Ki worked out at 295 nM.

In the case of `CCCC[C@H](NC(C)=O)C(=O)N[C@H]1CCC(=O)NCC[C@@H](C(=O)N[C@H](Cc2c[nH]c3ccccc23)C(N)=O)NC(=O)[C@H](CCCNC(=N)N)NC(=O)[C@@H](Cc2ccccc2)NC(=O)[C@H](Cc2c[nH]cn2)NC1=O` [Example 9.7, Ac-Nle-cyclo(Glu-His-D-Phe-Arg-Dab)-D-Trp-NH2], the Ki was 33 nM.

For `CCCC[C@H](NC(C)=O)C(=O)N[C@H]1CCC(=O)NCC[C@@H](C(=O)N[C@@H](Cc2c[nH]c3ccccc23)C(N)=O)NC(=O)[C@H](CCCNC(=N)N)NC(=O)[C@H](Cc2ccccc2)NC(=O)[C@H](Cc2c[nH]cn2)NC1=O` [Example 9.8, Ac-Nle-cyclo(Glu-His-Phe-Arg-Dab)-Trp-NH2], the inhibition constant Ki was found to be 10000 nM.

Take `CCCC[C@H](NC(C)=O)C(=O)N[C@H]1CCC(=O)NCC[C@@H](C(=O)N[C@H](Cc2cccc3ccccc23)C(N)=O)NC(=O)[C@H](CCCNC(=N)N)NC(=O)[C@@H](Cc2ccccc2)NC(=O)[C@H](Cc2c[nH]cn2)NC1=O` [Example 9.9, Ac-Nle-cyclo(Glu-His-D-Phe-Arg-Dab)-D-Nal 1-NH2]: the inhibition constant (Ki) is 2 nM.

As for `CCCC[C@H](NC(C)=O)C(=O)N[C@H]1CCC(=O)NCC[C@@H](C(=O)N[C@@H](Cc2ccc3ccccc3c2)C(N)=O)NC(=O)[C@H](CCCNC(=N)N)NC(=O)[C@@H](Cc2ccccc2)NC(=O)[C@H](Cc2c[nH]cn2)NC1=O` [Example 9.10, Ac-Nle-cyclo(Glu-His-D-Phe-Arg-Dab)-Nal 2-NH2], the Ki was 3 nM.

Regarding `CCCC[C@H](NC(C)=O)C(=O)N[C@H]1CCC(=O)NCC[C@@H](C(=O)N[C@H](Cc2ccc3ccccc3c2)C(N)=O)NC(=O)[C@H](CCCNC(=N)N)NC(=O)[C@@H](Cc2ccccc2)NC(=O)[C@H](Cc2c[nH]cn2)NC1=O` [Example 9.11, Ac-Nle-cyclo(Glu-His-D-Phe-Arg-Dab)-D-Nal 2-NH2], the Ki was 0.095 nM.

Take `CC(=O)N[C@H](Cc1ccccc1)C(=O)N[C@H]1CCC(=O)NCC[C@@H](C(=O)N[C@@H](Cc2c[nH]c3ccccc23)C(N)=O)NC(=O)[C@H](CCCNC(=N)N)NC(=O)[C@@H](Cc2ccccc2)NC(=O)[C@H](Cc2c[nH]cn2)NC1=O` [Example 9.12, Ac-D-Phe-cyclo(Glu-His-D-Phe-Arg-Dab)-Trp-NH2]: the inhibition constant Ki was found to be 535 nM.

For `N=C(N)NCCC[C@@H]1NC(=O)[C@@H](Cc2ccccc2)NC(=O)[C@H](Cc2c[nH]cn2)NC(=O)CCC(=O)NCC[C@@H](C(=O)N[C@@H](Cc2c[nH]c3ccccc23)C(N)=O)NC1=O` [Example 9.14, cyclo(Suc-His-Phe-Arg-Dab)-Trp-NH2] (H[dF]R[Dab]W-NH2; linker N-4 via Suc), the inhibitory constant (Ki) was 10000 nM.

As to `CCCCCC(=O)N[C@H]1CCC(=O)NCC[C@@H](C(=O)N[C@@H](Cc2c[nH]c3ccccc23)C(N)=O)NC(=O)[C@H](CCCNC(=N)N)NC(=O)[C@@H](Cc2ccccc2)NC(=O)[C@H](Cc2c[nH]cn2)NC1=O` [Example 9.17, CH3—(CH2)4—C(═O)-cyclo(Glu-His-D-Phe-Arg-Dab)-Trp-NH2], the Ki turned out to be 110 nM.

In the case of `CCCC[C@H](NC(C)=O)C(=O)N[C@H]1CCNC(=O)CCC(=O)NCC[C@@H](C(=O)N[C@@H](Cc2c[nH]c3ccccc23)C(N)=O)NC(=O)[C@H](CCCNC(=N)N)NC(=O)[C@@H](Cc2ccccc2)NC(=O)[C@H](Cc2c[nH]cn2)NC1=O` [Example 9.27], the Ki amounted to 380 nM.

On to `CCCC[C@H](NC(C)=O)C(=O)N[C@H]1CNC(=O)CCC(=O)NC[C@@H](C(=O)N[C@@H](Cc2c[nH]c3ccccc23)C(N)=O)NC(=O)[C@H](CCCNC(=N)N)NC(=O)[C@@H](Cc2ccccc2)NC(=O)[C@H](Cc2c[nH]cn2)NC1=O` [Example 9.28], for which the Ki was determined as 680 nM.

`CCCC[C@H](NC(C)=O)C(=O)N[C@H]1CCNC(=O)CCC(=O)NC[C@@H](C(=O)N[C@@H](Cc2c[nH]c3ccccc23)C(N)=O)NC(=O)[C@H](CCCNC(=N)N)NC(=O)[C@@H](Cc2ccccc2)NC(=O)[C@H](Cc2c[nH]cn2)NC1=O` [Example 9.29]: the inhibitory constant (Ki) came out at 325 nM.

`CCCC[C@H](NC(C)=O)C(=O)N[C@H]1CCC(=O)NCC[C@@H](C(=O)N[C@@H](Cc2cccc3ccccc23)C(N)=O)NC(=O)[C@H](CCCNC(=N)N)NC(=O)[C@@H](Cc2ccccc2)NC(=O)[C@H](Cc2c[nH]cn2)NC1=O` [Example 9.30, Ac-Nle-cyclo(Glu-His-D-Phe-Arg-Dab)-Nal 1-NH2]: the Ki was 0.75 nM.

Consider `CCCC[C@H](NC(C)=O)C(=O)N[C@H]1CCC(=O)NCC[C@@H](C(=O)N[C@@H](Cc2c[nH]c3ccccc23)C(N)=O)NC(=O)[C@H](CCCNC(=N)N)NC(=O)[C@@H](Cc2ccccc2)NC(=O)[C@H](C)NC1=O` [Example 9.36, Ac-Nle-cyclo(Glu-Ala-D-Phe-Arg-Dab)-Trp-NH2], for which the Ki was found to be 455 nM.

For `CCCC[C@H](NC(C)=O)C(=O)N[C@H]1CCC(=O)NCC[C@@H](C(=O)N[C@@H](Cc2c[nH]c3ccccc23)C(N)=O)NC(=O)[C@H](CCCNC(=N)N)NC(=O)[C@@H](Cc2ccccc2)NC(=O)[C@H](CCCNC(=N)N)NC1=O` [Example 9.37, Ac-Nle-cyclo(Glu-Arg-D-Phe-Arg-Dab)-Trp-NH2], the Ki amounted to 20 nM.

Turning to `CCCC[C@H](NC(C)=O)C(=O)N[C@H]1CCC(=O)NCC[C@@H](C(=O)N[C@@H](Cc2c[nH]c3ccccc23)C(N)=O)NC(=O)[C@H](CCCNC(=N)N)NC(=O)[C@@H](Cc2ccccc2)NC(=O)[C@H](CCCNC(N)=O)NC1=O` [Example 9.38, Ac-Nle-cyclo(Glu-Cit-D-Phe-Arg-Dab)-Trp-NH2], the Ki turned out to be 98 nM.

For `CCCC[C@H](NC(C)=O)C(=O)N[C@H]1CCC(=O)NCC[C@@H](C(=O)N[C@@H](Cc2c[nH]c3ccccc23)C(N)=O)NC(=O)[C@H](CCCNC(=N)N)NC(=O)[C@@H](Cc2ccccc2)NC(=O)[C@H](CCCCN)NC1=O` [Example 9.40, Ac-Nle-cyclo(Glu-Lys-D-Phe-Arg-Dab)-Trp-NH2], the inhibition constant Ki is 95 nM.

Regarding `CCCC[C@H](NC(C)=O)C(=O)N[C@H]1CCC(=O)NCC[C@@H](C(=O)N[C@@H](Cc2c[nH]c3ccccc23)C(N)=O)NC(=O)[C@H](CCCNC(=N)N)NC(=O)[C@@H](Cc2ccccc2)NC(=O)[C@H](CCN)NC1=O` [Example 9.41, Ac-Nle-cyclo(Glu-Dab-D-Phe-Arg-Dab)-Trp-NH2], the Ki is 98 nM.

Turning to `CCCC[C@H](NC(C)=O)C(=O)N[C@H]1CCC(=O)NCC[C@@H](C(=O)N[C@@H](Cc2c[nH]c3ccccc23)C(N)=O)NC(=O)[C@H](CCCNC(=N)N)NC(=O)[C@@H](Cc2ccccc2)NC(=O)[C@H](CCCN)NC1=O` [Example 9.42, Ac-Nle-cyclo(Glu-Orn-D-Phe-Arg-Dab)-Trp-NH2], the Ki was determined as 45 nM.

Regarding `CCCC[C@H](NC(C)=O)C(=O)N[C@H]1CCC(=O)NCC[C@@H](C(N)=O)NC(=O)[C@H](CCCNC(=N)N)NC(=O)[C@@H](Cc2ccccc2)NC(=O)[C@@H]2CCCN2C1=O` [Example 9.65, Ac-Nle-cyclo(Glu-Pro-D-Phe-Arg-Dab)-NH2], the Ki worked out at 10000 nM.

The target of a further assay is hMCR-1 (Homo sapiens (Human), UniProt Q01726). The experiment in a line: Assay for agonist activity: intracellular cAMP accumulation in HBL human melanoma cells. The format is cell-based. The note with it: HBL cells, maximum efficacy compared to reference agonist NDP-α-MSH. As for the experimental part: Confluent HBL cells that express hMCR-1 or HEK-293 cells that express recombinant hMCR-4 were detached from culture plates by incubation in enzyme-free cell dissociation buffer. Dispersed cells were suspended in Earle's Balanced Salt Solution containing 10 mM HEPES (pH 7.5), 1 mM MgCl2, 1 mM glutamine, 0.5% albumin and 0.3 mM 3-isobutyl-1-methyl-xanthine (IBMX), a phosphodiesterase inhibitor. The cells were plated in 96-well plates at a density of 0.4×10^5 cells per well for HBL cells and 0.5×10^5 cells per well for HEK-293 cells and pre-incubated for 10 minutes. Cells were exposed for 15 minutes at 37° C. to peptides of the present invention dissolved in DMSO (final DMSO concentration of 1%) at a concentration range of 0.05-5000 nM in a total assay volume of 200 μL. […] Data analysis was performed by nonlinear regression analysis with Graph-Pad Prism® software.
Sequence of hMCR-1 (Q01726 whole entry): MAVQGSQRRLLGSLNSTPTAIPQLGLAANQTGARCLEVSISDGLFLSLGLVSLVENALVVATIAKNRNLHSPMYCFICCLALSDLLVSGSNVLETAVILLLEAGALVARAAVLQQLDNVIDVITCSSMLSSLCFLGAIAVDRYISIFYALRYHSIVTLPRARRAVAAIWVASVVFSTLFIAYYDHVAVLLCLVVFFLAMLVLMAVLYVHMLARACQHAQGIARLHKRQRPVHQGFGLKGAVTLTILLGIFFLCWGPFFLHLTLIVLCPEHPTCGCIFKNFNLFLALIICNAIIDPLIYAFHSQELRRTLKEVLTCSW
as §1
Regarding `CCCC[C@H](NC(C)=O)C(=O)N[C@H]1CCC(=O)NCC[C@@H](C(N)=O)NC(=O)[C@H](CCCNC(=N)N)NC(=O)[C@@H](Cc2ccccc2)NC(=O)[C@H](Cc2c[nH]cn2)NC1=O` [Example 9.44, Ac-Nle-cyclo(Glu-His-D-Phe-Arg-Dab)-NH2] (Ac-[Nle]EH[dF]R[Dab]-NH2; lactam 2-6), the “MC-1 Emax (average; cAMP HBL)” value is 85% ^.
